The molecules below were run on U937 cells (assay: Inhibitory activity against programmed necroptosis of U937 cells induced by TNF-α). Conditions: Homo sapiens, U-937, 48 h, 100 ng/ml human TNF-α and 25 μM Q-VD-Oph, 48 hours, CellTiter-Glo survival rate; read-out: U937 IC50.
Format: cell-based, human
Protocol: The U937 cell strain which was used in the following Testing Examples was derived from ATCC, No.: CRL-1593.2, batch No.: 63479999, culture medium: RPMI-1640+10% FBS.
The compound was dissolved in DMSO to prepare a 10 mM stock solution. The stock solution was diluted in 3.16 folds with DMSO to a series of gradient concentrations. Then, the resultant solution was diluted in 250 folds with a culture medium to prepare a working solution. The U937 cells were inoculated in a 384-well plate at 5000/well. The compound at respective concentration was added to each of the cells, and was mixed with the cells homogeneously. 100 ng/ml human TNF-α and 25 μM Q-VD-Oph were added simultaneously to induce programmed necroptosis of the cells. The final concentration of DMSO was 2%. The cells were placed in the incubator at 37° C. and 5% CO2 for further culture of 48 hours. Celltiter-Glo reagent was used for detection. After adequate pyrolysis reaction, the chemiluminescence readout value was recorded by a microplate reader. The survival rate was calculated from the detection results using the equation as follows: SR (%)=(RLU compound−RLU blank)/(RLU high control−RLU blank)×100%. The survival rate was plotted against the final concentration of respective compound using a 4-parameter fitting to calculate the inhibitory IC50 of the compound against programmed necroptosis of cells induced by TNF-a.
`COc1ncc(-c2ccc3nc(N)sc3c2)cc1C(=O)NC(C)c1ccccc1OC(F)(F)F` (single isomer, unassigned) [Compound Z1, 5-(2-aminobenzothiazol-6-yl)-2-methoxy-N-(1-(2-(trifluoromethoxy)phenyl)ethyl)nicotinamide] was tested, and the IC50 was 52 nM. Work on `CC(NC(=O)c1cnc(Cl)c(-c2ccc3nc(N)sc3c2)c1)c1ccccc1OC(F)(F)F` (stereo not drawn) [Compound Z8, 5-(2-aminobenzo[d]thiazol-6-yl)-6-chloro-N-(1-(2-(trifluoromethoxy)phenyl)ethyl)nicotinamide] yielded an IC50 of 88 nM. Molecule `Cc1ncc(-c2ccc3nc(N)sc3c2)cc1C(=O)NCc1c(F)cccc1OCC1CCCC1` [Compound Z12, 5-(2-aminobenzo[d]thiazol-6-yl)-N-(2-(cyclopentylmethoxy)-6-fluorobenzyl)-2-methylnicotinamide] has an IC50 of 10 nM. Work on `COc1ncc(C(=O)NCc2cc(F)ccc2OC2CCCC2)cc1-c1ccc2nc(N)sc2c1` [Compound Z13, 5-(2-aminobenzo[d]thiazol-6-yl)-N-(2-(cyclopentyloxy)-5-fluorobenzyl)-6-methoxynicotinamide] yielded an IC50 of 17 nM. `COc1ncc(-c2ccc3nc(N)sc3c2)cc1C(=O)NCc1cc(OC(F)(F)F)ccc1F` [Compound Z14, 5-(2-aminobenzo[d]thiazol-6-yl)-N-(2-fluoro-5-(trifluoromethoxy)benzyl)-2-methoxynicotinamide] showed an IC50 of 6 nM. `COc1ncc(-c2ccc3nc(N)sc3c2)cc1C(=O)NCCCc1ccccc1` [Compound Z16, 5-(2-aminobenzo[d]thiazol-6-yl)-2-methoxy-N-(3-phenylpropyl)nicotinamide] was tested, and the IC50 was 26 nM. In the case of `COc1ncc(-c2ccc3nc(N)sc3c2)cc1C(=O)N1CCCC(Cc2ccc(F)cc2)C1` (stereo not drawn) [Compound Z17, (5-(2-aminobenzo[d]thiazol-6-yl)-2-methoxypyridin-3-yl)(3-(4-fluorobenzyl)piperidin-1-yl)methanone], the IC50 is reported as 4 nM. With `COc1ncc(-c2ccc3nc(N)sc3c2)cc1C(=O)NCc1c(F)cccc1OC1CCCC1` [Compound Z18, 5-(2-aminobenzo[d]thiazol-6-yl)-N-(2-(cyclopentyloxy)-6-fluorobenzyl)-2-methoxynicotinamide] the IC50 was 4 nM. Work on `COc1ncc(-c2ccc3nc(N)sc3c2)cc1C(=O)NCc1cc(F)ccc1OC1CCCC1` [Compound Z19, 5-(2-aminobenzo[d]thiazol-6-yl)-N-(2-(cyclopentyloxy)-5-fluorobenzyl)-2-methoxynicotinamide] yielded an IC50 of 7 nM. `COc1ncc(-c2ccc3nc(N)sc3c2)cc1C(=O)NCc1ccccc1OCC1CC1` [Compound Z20, 5-(2-aminobenzo[d]thiazol-6-yl)-N-(2-(cyclopropylmethoxy)benzyl)-2-methoxynicotinamide] gave an IC50 of 18 nM. In the case of `Nc1nc2ccc(-c3cncc(C(=O)NCc4ccccc4OCC4CC4)c3)cc2s1` [Compound Z22, 5-(2-aminobenzo[d]thiazol-6-yl)-N-(2-(cyclopropylmethoxy)benzyl)nicotinamide], the IC50 is reported as 62 nM. In the case of `CC(NC(=O)c1cc(-c2ccn3nc(N)nc3c2)cc2[nH]ccc12)c1ccccc1OC(F)(F)F` (stereo not drawn) [Compound Z24, 6-(2-amino-[1,2,4]triazolo[1,5-a]pyridin-7-yl)-N-(1-(2-(trifluoromethoxy)phenyl)ethyl)-1H-indole-4-carboxamide], the IC50 is reported as 151 nM. In the case of `CC(NC(=O)c1cc(-c2ccn3nc(N)nc3c2)c2cc[nH]c2c1)c1ccccc1OC(F)(F)F` (stereo not drawn) [Compound Z25, 4-(2-amino-[1,2,4]triazolo[1,5-a]pyridin-7-yl)-N-(1-(2-(trifluoromethoxy)phenyl)ethyl)-1H-indole-6-carboxamide], the IC50 is reported as 140 nM. For `COc1nc(C)c(-c2ccc3nc(N)sc3c2)cc1C(=O)NC(C)c1ccccc1OC(F)(F)F` (stereo not drawn) [Compound Z37, 5-(2-aminobenzo[d]thiazol-6-yl)-2-methoxy-6-methyl-N-(1-(2-(trifluoromethoxy)phenyl)ethyl)nicotinamide], the IC50 was 45 nM. `COc1nc(C)c(-c2ccc3nc(N)sc3c2)cc1C(=O)NCc1cc(F)cc(F)c1OCC1CC1` [Compound Z38, 5-(2-aminobenzo[d]thiazol-6-yl)-N-(2-(cyclopropylmethoxy)-3,5-difluorobenzyl)-2-methoxy-6-methylnicotinamide] was tested, and the IC50 was 14 nM. Molecule `COc1nc(C)c(-c2ccc3nc(N)sc3c2)cc1C(=O)NCc1ccccc1OC1CCOC1` (stereo not drawn) [Compound Z40, 5-(2-aminobenzo[d]thiazol-6-yl)-2-methoxy-6-methyl-N-(2-((tetrahydrofuran-3-yl)oxy)benzyl)nicotinamide] has an IC50 of 68 nM. Molecule `COc1nc(C)c(-c2ccc3nc(N)sc3c2)cc1C(=O)NCc1cccnc1OC1CCCC1` [Compound Z41, 5-(2-aminobenzo[d]thiazol-6-yl)-N-((2-(cyclopentyloxy)pyridin-3-yl)methyl)-2-methoxy-6-methylnicotinamide] has an IC50 of 14 nM. In the case of `COc1nc(C)c(-c2ccc3nc(N)sc3c2)cc1C(=O)NCc1ccccc1OC(C)C` [Compound Z42, 5-(2-aminobenzo[d]thiazol-6-yl)-N-(2-isopropoxybenzyl)-2-methoxy-6-methylnicotinamide], the IC50 is reported as 43 nM. `Cc1ncc(-c2ccc3nc(N)sc3c2)cc1C(=O)NC(C)c1cc(OC(F)(F)F)ccc1F` (stereo not drawn) [Compound Z43, 5-(2-aminobenzo[d]thiazol-6-yl)-N-(1-(2-fluoro-5-(trifluoromethoxy)phenyl)ethyl)-2-methylnicotinamide] gave an IC50 of 3 nM. `CC(NC(=O)c1cc(-c2ccc3nc(N)sc3c2)cnc1N)c1ccccc1OC(F)(F)F` (stereo not drawn) [Compound Z46, 2-amino-5-(2-aminobenzo[d]thiazol-6-yl)-N-(1-(2-(trifluoromethoxy)phenyl)ethyl)nicotinamide] gave an IC50 of 76 nM. For `COc1ncc(-c2ccc3nc(N)sc3c2)cc1C(=O)NC(C)c1c(F)cccc1OC(F)(F)F` (stereo not drawn) [Compound Z48, 5-(2-aminobenzo[d]thiazol-6-yl)-N-(1-(2-fluoro-6-(trifluoromethoxy)phenyl)ethyl)-2-methoxynicotinamide], the IC50 was 88 nM. `COc1ncc(-c2ccc3nc(N)sc3c2)cc1C(=O)NCc1ccccc1OC(C)C` [Compound Z50, 5-(2-aminobenzo[d]thiazol-6-yl)-N-(2-isopropoxybenzyl)-2-methoxynicotinamide] gave an IC50 of 49 nM. Work on `COc1ncc(-c2ccc3nc(N)sc3c2)cc1C(=O)NCc1cccnc1OC1CCCC1` [Compound Z52, 5-(2-aminobenzo[d]thiazol-6-yl)-N-((2-(cyclopentyloxy)pyridin-3-yl)methyl)-2-methoxynicotinamide] yielded an IC50 of 19 nM. Work on `COc1ncc(-c2ccc3nc(N)sc3c2)cc1C(=O)NCc1ccccc1OC1CCOC1` (stereo not drawn) [Compound Z53, 5-(2-aminobenzo[d]thiazol-6-yl)-2-methoxy-N-(2-((tetrahydrofuran-3-yl)oxy)benzyl)nicotinamide] yielded an IC50 of 42 nM. `Cn1ncc2c(-c3ccn4nc(N)nc4c3)cc(C(=O)NCc3cccnc3OC3CCCC3)cc21` [Compound Z57, 4-(2-amino-[1,2,4]triazolo[1,5-a]pyridin-7-yl)-N-((2-(cyclopentyloxy)pyridin-3-yl)methyl)-1-methyl-1H-indazole-6-carboxamide] was tested, and the IC50 was 11 nM. For `Cn1ncc2c(-c3ccn4nc(N)nc4c3)cc(C(=O)NCc3cc(F)ccc3OCC3CC3)cc21` [Compound Z59, 4-(2-amino-[1,2,4]triazolo[1,5-a]pyridin-7-yl)-N-(2-(cyclopropylmethoxy)-5-fluorobenzyl)-1-methyl-1H-indazole-6-carboxamide], the IC50 was 24 nM. Molecule `CC(c1ccc(F)cc1)n1cc(NC(=O)c2cc(-c3ccn4nc(N)nc4c3)c3cnn(C)c3c2)cn1` (stereo not drawn) [Compound Z60, 4-(2-amino-[1,2,4]triazolo[1,5-a]pyridin-7-yl)-N-(1-(1-(4-fluorophenyl)ethyl)-1H-pyrazol-4-yl)-1-methyl-1H-indazole-6-carboxamide] has an IC50 of 213 nM. `Cn1ncc2c(-c3ccn4nc(N)nc4c3)cc(C(=O)NCc3cc(F)ccc3OC3CCOCC3)cc21` [Compound Z61, 4-(2-amino-[1,2,4]triazolo[1,5-a]pyridin-7-yl)-N-(5-fluoro-2-((tetrahydro-2H-pyran-4-yl)oxy)benzyl)-1-methyl-1H-indazole-6-carboxamide] showed an IC50 of 2 nM. `Cn1ncc2c(-c3ccn4nc(N)nc4c3)cc(C(=O)NCc3cc(F)ccc3OC3CCOC3)cc21` (stereo not drawn) [Compound Z62, 4-(2-amino-[1,2,4]triazolo[1,5-a]pyridin-7-yl)-N-(5-fluoro-2-((tetrahydrofuran-3-yl)oxy)benzyl)-1-methyl-1H-indazole-6-carboxamide] showed an IC50 of 30 nM. `COc1ncc(-c2ccc3nc(N)sc3c2)cc1C(=O)Nc1cnn(C(C)c2ccc(F)cc2)c1` (stereo not drawn) [Compound Z63, 5-(2-aminobenzo[d]thiazol-6-yl)-N-(1-(1-(4-fluorophenyl)ethyl)-1H-pyrazol-4-yl)-2-methoxynicotinamide] showed an IC50 of 7 nM.
